Where a name gives a salt, the structure may show the parent alone.
Key:
prolyl hydroxylase = prolyl hydroxylase (Homo sapiens, UniProt P13674); assay: enzyme test: hydroxylation of underhydroxylated collagen with prolyl hydroxylase in the presence of iron(II) ions, α-keto glutarate and ascorbate; assay type: biochemical; conditions: concentration which leads to an 80% inhibition of enzyme activity (the value is indicated as Ki); salts
[1] = tested on: Clq biosynthesis of macrophages; conditions: W. Muller et al., FEBS Lett. 90, 218 (1978); cited from earlier work
calvaria culture = assay: calvaria culture: reduction of the hydroxyproline/proline quotients in metabolic labeling with ^14 C-proline; assay type: cell-based; conditions: 50% reduction of the hydroxyproline/proline quotients in metabolic labeling with ^14 C-proline; esters
Excerpt: The inhibitory activity can also be determined in cell or tissue culture. To do this, fibroblasts or other collagen-producing cells or calvaria or other collagen-producing organs can be employed. The inhibitory activity of substances according to the invention in calvaria culture is collated in Table 3. The concentration is indicated which leads to a 50% reduction of the hydroxyproline/proline quotients in metabolic labeling with ^14 C-proline (IC50).

Chain of prolyl hydroxylase (P13674 18-534): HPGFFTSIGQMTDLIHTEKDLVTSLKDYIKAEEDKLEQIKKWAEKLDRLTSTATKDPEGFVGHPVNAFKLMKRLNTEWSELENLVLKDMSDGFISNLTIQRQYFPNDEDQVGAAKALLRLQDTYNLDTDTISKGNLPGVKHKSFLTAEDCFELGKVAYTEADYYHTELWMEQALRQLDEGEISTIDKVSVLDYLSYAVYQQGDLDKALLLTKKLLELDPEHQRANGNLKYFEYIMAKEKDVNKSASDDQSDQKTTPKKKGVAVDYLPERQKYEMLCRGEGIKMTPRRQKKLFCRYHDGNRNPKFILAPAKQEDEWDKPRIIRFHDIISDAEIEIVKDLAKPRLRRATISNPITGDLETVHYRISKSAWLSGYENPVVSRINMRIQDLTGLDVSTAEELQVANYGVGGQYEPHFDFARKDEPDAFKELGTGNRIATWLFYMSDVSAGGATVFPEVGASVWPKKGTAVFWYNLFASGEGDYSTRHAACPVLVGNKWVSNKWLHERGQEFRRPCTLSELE
Chain of prolyl hydroxylase (P07237 18-508 partner): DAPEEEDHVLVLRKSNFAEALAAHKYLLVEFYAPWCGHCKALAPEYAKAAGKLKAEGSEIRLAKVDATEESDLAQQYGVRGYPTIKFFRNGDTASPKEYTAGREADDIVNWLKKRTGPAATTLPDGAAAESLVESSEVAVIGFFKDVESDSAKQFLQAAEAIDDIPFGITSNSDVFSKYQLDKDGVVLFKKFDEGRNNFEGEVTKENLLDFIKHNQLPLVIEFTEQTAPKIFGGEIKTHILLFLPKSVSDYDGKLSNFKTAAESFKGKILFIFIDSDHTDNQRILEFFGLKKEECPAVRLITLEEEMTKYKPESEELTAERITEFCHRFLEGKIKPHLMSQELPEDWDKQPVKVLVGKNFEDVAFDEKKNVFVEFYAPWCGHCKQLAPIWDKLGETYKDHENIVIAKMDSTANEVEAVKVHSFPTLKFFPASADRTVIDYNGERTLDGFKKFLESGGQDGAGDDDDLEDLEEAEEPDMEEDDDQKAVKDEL

SMILES | Ki (prolyl hydroxylase) [µM] | IC50 (calvaria culture) [µM] | further results
c1ccc(-c2ccccn2)nc1 [α, α-dipyridyl] | – | – | inhibition of Clq biosynthesis [1]: inhibition of Clq biosynthesis of macrophages
COC(=O)C(=O)N[C@@H](C)C(=O)OC [Example 1, (N-Oxalyl)-L-alanine dimethyl ester] | – | 350 | –

More lines, main results first:

Ki (prolyl hydroxylase) [µM] | IC50 (calvaria culture) [µM] | SMILES | further results
40 | – | C[C@H](NC(=O)C(=O)O)C(=O)O [dipotassium salt] | –
10 | – | O=C(O)CNC(=O)C(=O)O [Example 10, (N-Oxalyl)-L-glycine dipotassium salt] | –
– | 2 | COC(=O)CNC(=O)C(=O)OC [Example 3, (N-Oxalyl)-L-glycine dimethyl ester] | –
